Assay in all cases: inhibition of tumour cell growth, NCI panel, 48 h
The subject of assay [1] is MDA-MB-435.
For assay [2], the system named is HT29 colon.
Assay [3] relates to SK-MEL-2 melanoma.
The subject of assay [4] is CCRF-CEM leukemia.
For assay [5], the system named is U251 CNS.
Assay [6] has as its system SF-295 CNS.
For assay [7], the system named is OVCAR-3 ovarian.
Assay [8] concerns RXF 393 renal.

“And” between values parts separate entries of the source, which are not always exact repeats. Equal values may be shown once.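 Exposure lasted 48 hours, with cells grown in 96-well plates and compounds tested at five concentrations. GI50 is the concentration that inhibits growth by half. Definition used: TGI = concentration required for complete inhibition of growth.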

For the compound `COc1ccc2cc(C(=O)N3CCC([C@@H](C)C(=O)NCc4ccc5c(c4)OCO5)CC3)[nH]c2c1`, the GI50 was 51.2 µM in assay [1]; > 100 µM in assay [2]; > 100 µM in assay [3]; > 100 µM in assay [4]; > 100 µM in assay [5]; 68.5 µM in assay [6]. The GI50 in assay [7] is > 100 µM. The TGI in assay [1], in assay [2], in assay [3], in assay [4], in assay [5] and in assay [6] was > 100 µM in each case. Moreover, in assay [7], the TGI is > 100 µM.
With `CN1CCN(c2ccncc2S(=O)(=O)N2CCN(C)CC2)CC1`, the TGI in assay [1], in assay [2], in assay [3], in assay [5], in assay [6] and in assay [7] was > 100 µM each time. Besides, the TGI in assay [8] is > 100 µM.
As for `Cc1cc2[nH]c(=O)c3c4ncccc4cn3c2cc1C`, the GI50 in assay [2] is 2.98 µM; in assay [3], 5.69 µM; in assay [4], 2.95 µM; in assay [5], 2.67 µM; in assay [6] it was 1.85 µM; in assay [7], 2.02 µM. Further, the TGI was > 100 µM in assay [2]; 40.3 µM in assay [3]; > 100 µM in assay [4]; 9.18 µM in assay [5]; 3.84 µM in assay [6]; 4.33 µM in assay [7].
Consider `CC(=O)CCc1ccc(Oc2c3ccccc3nc3occc23)cc1`, for which the GI50 in assay [1] was 17.7 µM; in assay [2], 18 µM; in assay [4] it was 24.1 µM; in assay [5], 13.5 µM; in assay [6] it was 15.7 µM; in assay [7], 14 µM. Also, the GI50 in assay [8] was 14 µM. Moreover, the TGI stood at 43.9 µM in assay [1]; 50.6 µM in assay [2]; 94.7 µM in assay [4]; 33.8 µM in assay [5]; 40.9 µM in assay [6]; 31.6 µM in assay [7]. In assay [8], this compound displayed a TGI of 39.1 µM.
In the case of `C[C@]12CC[C@@H]3c4ccc(O)cc4CC[C@H]3[C@@H]1CC(Cc1ccccc1)(Cc1ccccc1)C2=O`, the GI50 in assay [1] is 20.7 µM; in assay [2], 6.04 µM; in assay [3], 24.8 µM; in assay [4] it was 14.3 µM; in assay [5], 16 µM; in assay [6] it was 21.4 µM. Further, the GI50 in assay [7] was 16 µM. Further, the TGI in assay [1] turned out to be 57 µM; in assay [2], 20.6 µM; in assay [3], 53.6 µM; in assay [4], 36.4 µM; in assay [5], 31.8 µM; in assay [6], 49.1 µM. Further, in assay [7], the TGI amounted to 38.3 µM.
Turning to `N[C@@H](Cc1c[nH]c2ccccc12)C(=O)NC1CCN(Cc2c[nH]c3ccc(Cl)cc23)CC1`, the GI50 is 5.99 µM in assay [1]; 10.8 µM in assay [2]; 16.6 µM in assay [3]; 2.15 µM in assay [4]; 10.6 µM in assay [5]; 6.34 µM in assay [6]. In assay [7], the GI50 is 10.5 µM. Besides, the TGI turned out to be 18.7 µM in assay [1]; 23.5 µM in assay [2]; 31.8 µM in assay [3]; 4.95 µM in assay [4]; 22.7 µM in assay [5]; 20.1 µM in assay [6]. In addition, the TGI in assay [7] is 22.5 µM.
On to `OCC#Cc1ccccc1C#Cc1ccc(C#Cc2ccccc2C#CCO)cc1`, for which the GI50 in assay [1] was > 100 µM; in assay [2], 45.4 µM; in assay [3] it was 36.2 µM; in assay [4], 38.1 µM; in assay [5] it was 34 µM; in assay [6] it was 22.7 µM. Besides, in assay [7], the GI50 was 20 µM. The TGI in assay [1] is > 100 µM; in assay [2], > 100 µM; in assay [3], 79.9 µM; in assay [4], > 100 µM; in assay [5], > 100 µM; in assay [6], 62.6 µM. The TGI in assay [7] was determined as 56.6 µM.
Take `COc1ccc2c(c1)C(=O)/C(=C/c1ccc(O)cc1)O2`: the GI50 in assay [1] is 6.73 µM; in assay [2], 4.14 µM; in assay [4] it was 1.63 µM; in assay [5] it was 14.1 µM; in assay [6] it was 23.6 µM; in assay [7] it was 2.28 µM. Besides, the GI50 in assay [8] is 11 µM. Also, the TGI in assay [1] is 20.5 µM; in assay [2], 14.8 µM; in assay [4], 3.54 µM; in assay [5] it was 27.2 µM; in assay [6], > 66.9 µM; in assay [7] it was 5.29 µM. For the same compound, the TGI in assay [8] was 26 µM.
Take `COc1ccc(OC)c(-c2cc(-c3ccc(Cl)cc3)nn2-c2ccccc2)c1`: the GI50 in assay [1] is 18.3 µM; in assay [3], > 100 µM; in assay [4] it was 8.57 µM; in assay [6], 33.5 µM; in assay [7] it was 23.7 µM. Besides, the TGI is 46.1 µM in assay [1]; > 100 µM in assay [3]; > 100 µM in assay [4]; > 100 µM in assay [6]; 46.7 µM in assay [7].
Consider `O=C(N/N=C/c1ccc([N+](=O)[O-])cc1)c1ccccc1Nc1ccnc(C(F)(F)F)c1`, for which the GI50 was 14.7 µM in assay [1]; 30.7 µM in assay [2]; > 100 µM in assay [4]; 16.6 µM in assay [5]; 11.2 µM in assay [6]; 4.54 µM in assay [7]. Also, in assay [8], the GI50 is 15.4 µM. For the same compound, the TGI in assay [1] is 35.1 µM; in assay [2], > 100 µM; in assay [4], > 100 µM; in assay [5] it was > 100 µM; in assay [6] it was 32.4 µM; in assay [7], > 100 µM. The TGI in assay [8] stood at 42.8 µM.
For `COC(=O)[C@@H](C)C[C@H](Cc1ccc(F)cc1)NC(=O)c1csc([C@@H](C[C@H](C(C)C)N(C)C(=O)[C@@H](NC(=O)[C@H]2CCCCN2C)C2CC2)OC(C)=O)n1`, the GI50 was 0.0194 µM in assay [1]; 0.107 µM in assay [2]; 0.169 µM in assay [3]; 0.153 µM in assay [4]; 0.293 µM in assay [5]; 0.585 µM in assay [6]. Also, the GI50 in assay [7] is 0.0723 µM. Also, the TGI was 0.109 µM in assay [1]; > 25 µM in assay [2]; > 25 µM in assay [3]; > 25 µM in assay [4]; > 25 µM in assay [5]; > 25 µM in assay [6]. Besides, in assay [7], the TGI stood at 0.633 µM.
As for `O=C1CC=C2C3CC4N(CCC45c4ccccc4N1C25)C/C3=C\CO` (centres undefined), the TGI in assay [1], in assay [2], in assay [3], in assay [4], in assay [5] and in assay [6] was > 100 µM throughout. Moreover, the TGI in assay [7] is > 100 µM.
For `[Mn+3].[O-][Cl+3]([O-])([O-])O.[O-]c1ccccc1C=NCCN1CC1.[O-]c1ccccc1C=NCCN1CC1`, the GI50 was 37 µM in assay [1]; 20.2 µM in assay [2]; 48.5 µM in assay [3]; 15.7 µM in assay [5]; 18.6 µM in assay [6]; 19.6 µM in assay [7]. In addition, in assay [8], the GI50 is 63 µM. The TGI is > 100 µM in assay [1]; 44.1 µM in assay [2]; > 100 µM in assay [3]; 38.6 µM in assay [5]; 58 µM in assay [6]; 40.1 µM in assay [7]. Also, the TGI in assay [8] is > 100 µM.
Regarding `COC(=O)[C@@H](C)C[C@H](Cc1ccccc1)NC(=O)c1csc([C@@H](C[C@H](C(C)C)N(C)C(=O)[C@@H](NC(=O)[C@H]2CCCCN2C)c2ccc(F)cc2)OC(C)=O)n1`, the GI50 in assay [1] was 0.00081 µM; in assay [3], 0.00682 µM and 0.0293 µM; in assay [7], 0.00309 µM and 0.0103 µM. For the same compound, the TGI in assay [1] was 0.00514 µM and 0.0274 µM; in assay [3], > 100 µM; in assay [4], 25 µM and > 100 µM; in assay [5], 25 µM and > 100 µM; in assay [6], 25 µM and > 100 µM; in assay [7], 0.0157 µM and 0.129 µM.
Consider `CC[C@H](C)[C@H](NC(=O)c1ncccn1)C(=O)N(C)[C@H](C[C@@H](OC(C)=O)c1nc(C(=O)N[C@@H](Cc2ccccc2)C[C@H](C)C(=O)OC)cs1)C(C)C`, for which the GI50 in assay [1] was 0.393 µM; in assay [2], 0.893 µM; in assay [4], 0.853 µM; in assay [5] it was 2.39 µM; in assay [6] it was 2.11 µM; in assay [7], 0.796 µM. Further, the GI50 in assay [8] was 0.809 µM. Also, the TGI in assay [1] is 1.08 µM; in assay [2], > 25 µM; in assay [4], 7.19 µM; in assay [5], > 25 µM; in assay [6], 16.7 µM; in assay [7] it was > 25 µM. The TGI in assay [8] was found to be 20.6 µM.
`O=C1/C(=C/c2ccc(Cl)cc2)N=C(c2ccccc2)N1c1cc(C(F)(F)F)ccc1Cl`: the GI50 in assay [1] was 22.7 µM; in assay [2] it was 24.1 µM; in assay [3], 17.5 µM; in assay [5] it was 22.5 µM; in assay [6], 17.2 µM; in assay [7], 17.4 µM. In addition, the GI50 in assay [8] is 27.5 µM. Further, the TGI was 71.4 µM in assay [1]; 73.5 µM in assay [2]; 45.4 µM in assay [3]; > 100 µM in assay [5]; 48.8 µM in assay [6]; 69 µM in assay [7]. For the same compound, in assay [8], the TGI is > 100 µM.

Source of the values: PubChem BioAssay (NCI).
